Patent US20240199702A1, “CELL-PERMEABLE CYCLIC PEPTIDES AND USES THEREOF” (Unnatural Products Inc., priority 2021, published 2024)
pIC50: −log10 of the molar value. Where a SMILES comes first, the peptide text is derived from it. [ ]: non-standard residue; d: D form. The star is where a group is joined. Ala(4-thiazolyl) = N[C@@H](Cc1cscn1)C(=O)O; Phe(4-Cl) = N[C@@H](Cc1ccc(Cl)cc1)C(=O)O; Phe(4-F) = N[C@@H](Cc1ccc(F)cc1)C(=O)O; Cyclohexanecarbonyl = O=C(C1CCCCC1)*; NMeF = CN[C@@H](Cc1ccccc1)C(=O)O; Nicotinoyl = O=C(c1cccnc1)*; Isovaleryl = CC(C)CC(=O)*; Methoxyacetyl = COCC(=O)*; hSer = N[C@@H](CCO)C(=O)O; NMeA = CN[C@@H](C)C(=O)O; dNMeA = CN[C@H](C)C(=O)O; Bz = O=C(c1ccccc1)*; Nme = COCCNCC(=O)O; X1 = O=C(C(F)F)*

Assays:
[1] = target: T1, Human MDM2 (HDM2) 1-116 (Homo sapiens, UniProt Q00987); assay: Fluorescence Polarization Assay 1 (MDM2/p53 peptide); type: binding; conditions: FAM-labeled p53 peptide, 60 minutes
T1 construct: Human MDM2 (HDM2) 1-116
Protocol: Fluorescence Polarization Assay 1
(§1) Human MDM2 (HDM2) 1-116 (20 μL) and FAM-labeled GGTSFAEYWNLLSP-NH2, 10 nM and 5 nM respectively in 10 mM Tris, 50 mM NaCl, 0.01% Tween20, and 1 mM DTT at pH 7.4 were dispensed into an opaque, black, 384 well plate. Compounds dissolved in DMSO were pin transferred (˜100-200 nL) to the 384 well plate containing the MDM2/p53 solution. After incubation for 60 minutes, the fluorescence polarization was read on a Molecular Devices SpectraMax plate reader equipped with a Fluorescein FP cartridge. In addition to probe alone (positive control) and probe/MDM2 (negative control), a titration of linear p53(18-26) was included on every plate as an additional control. IC50 values were fit using either Prism or Collaborative Drug Discovery.

[2] = target: T2, Human MDM4 (HDM4) 1-114 (Homo sapiens, UniProt O15151); assay: Fluorescence Polarization Assay 2 (MDM4/p53 peptide); type: binding; conditions: FAM-labeled p53 peptide, 60 minutes
T2 construct: Human MDM4 (HDM4) 1-114
T2 sequence (O15151 1-114): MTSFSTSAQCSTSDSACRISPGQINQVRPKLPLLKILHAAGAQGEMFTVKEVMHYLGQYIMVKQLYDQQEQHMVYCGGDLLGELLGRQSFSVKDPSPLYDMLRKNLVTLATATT
Protocol: Fluorescence Polarization Assay 2
as §1, with “MDM4 (HDM4) 1-114” for “MDM2 (HDM2) 1-116”, “GGTSFAEYWNLLSP —NH2, 20” for “GGTSFAEYWNLLSP-NH2, 10”, “(−100-200” for “(˜100-200”, “MDM4/p53” for “MDM2/p53”, “probe/MDM4” for “probe/MDM2”

T1 sequence (Q00987 1-116): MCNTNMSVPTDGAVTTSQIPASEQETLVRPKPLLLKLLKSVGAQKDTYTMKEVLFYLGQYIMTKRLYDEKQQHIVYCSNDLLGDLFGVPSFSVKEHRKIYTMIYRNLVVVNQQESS

pIC50 [1]	pIC50 [2]	Compound
> 7.60	7.30 to 7.60	COCC[C@@H]1NC(=O)[C@H]2CCCN2C(=O)[C@H](Cc2ccccc2)N(C)C(=O)[C@H](Cc2ccc(Cl)cc2)NC(=O)[C@H]([C@@H](C)OC(=O)COC)NC(=O)[C@H](Cc2ccc(F)cc2)NC(=O)CN(CCOC)C(=O)[C@@H](C)N(C)C(=O)[C@H](Cc2cscn2)NC(=O)[C@H](C)N(C)C1=O [compound 4] (cyclo([Ala(4-thiazolyl)][dNMeA][Nme][Phe(4-F)]T(Methoxyacetyl)[Phe(4-Cl)][NMeF][dP][hSer](Me)[NMeA]))
7.30 to 7.60	7.00 to 7.30	COCC[C@@H]1NC(=O)[C@H]2CCCN2C(=O)[C@H](Cc2ccccc2)N(C)C(=O)[C@H](Cc2ccc(Cl)cc2)NC(=O)[C@H]([C@@H](C)OC(=O)CC(C)C)NC(=O)[C@H](Cc2ccc(F)cc2)NC(=O)CN(CCOC)C(=O)[C@@H](C)N(C)C(=O)[C@H](Cc2cscn2)NC(=O)[C@H](C)N(C)C1=O [compound 5] (cyclo([Ala(4-thiazolyl)][dNMeA][Nme][Phe(4-F)]T(Isovaleryl)[Phe(4-Cl)][NMeF][dP][hSer](Me)[NMeA]))
7.30 to 7.60	7.00 to 7.30	COCC[C@@H]1NC(=O)[C@H]2CCCN2C(=O)[C@H](Cc2ccccc2)N(C)C(=O)[C@H](Cc2ccc(Cl)cc2)NC(=O)[C@H]([C@@H](C)OC(=O)C(F)F)NC(=O)[C@H](Cc2ccc(F)cc2)NC(=O)CN(CCOC)C(=O)[C@@H](C)N(C)C(=O)[C@H](Cc2cscn2)NC(=O)[C@H](C)N(C)C1=O [compound 7] (cyclo([Ala(4-thiazolyl)][dNMeA][Nme][Phe(4-F)]T(X1)[Phe(4-Cl)][NMeF][dP][hSer](Me)[NMeA]))
≤ 7.00	≤ 7.00	COCC[C@@H]1NC(=O)[C@H]2CCCN2C(=O)[C@H](Cc2ccccc2)N(C)C(=O)[C@H](Cc2ccc(Cl)cc2)NC(=O)[C@H]([C@@H](C)OC(=O)C2CCCCC2)NC(=O)[C@H](Cc2ccc(F)cc2)NC(=O)CN(CCOC)C(=O)[C@@H](C)N(C)C(=O)[C@H](Cc2cscn2)NC(=O)[C@H](C)N(C)C1=O [compound 8] (cyclo([Ala(4-thiazolyl)][dNMeA][Nme][Phe(4-F)]T(Cyclohexanecarbonyl)[Phe(4-Cl)][NMeF][dP][hSer](Me)[NMeA]))

Further lines, the compound ahead of its results:

Compound	pIC50 [1]	pIC50 [2]
COCC[C@@H]1NC(=O)[C@H]2CCCN2C(=O)[C@H](Cc2ccccc2)N(C)C(=O)[C@H](Cc2ccc(Cl)cc2)NC(=O)[C@H]([C@@H](C)OC(C)=O)NC(=O)[C@H](Cc2ccc(F)cc2)NC(=O)CN(CCOC)C(=O)[C@@H](C)N(C)C(=O)[C@H](Cc2cscn2)NC(=O)[C@H](C)N(C)C1=O [compound 1] (cyclo([Ala(4-thiazolyl)][dNMeA][Nme][Phe(4-F)]T(Ac)[Phe(4-Cl)][NMeF][dP][hSer](Me)[NMeA]))	> 7.60	7.30 to 7.60
COCC[C@@H]1NC(=O)[C@H]2CCCN2C(=O)[C@H](Cc2ccccc2)N(C)C(=O)[C@H](Cc2ccc(Cl)cc2)NC(=O)[C@H]([C@@H](C)OC(=O)c2ccccc2)NC(=O)[C@H](Cc2ccc(F)cc2)NC(=O)CN(CCOC)C(=O)[C@@H](C)N(C)C(=O)[C@H](Cc2cscn2)NC(=O)[C@H](C)N(C)C1=O [compound 2] (cyclo([Ala(4-thiazolyl)][dNMeA][Nme][Phe(4-F)]T(Bz)[Phe(4-Cl)][NMeF][dP][hSer](Me)[NMeA]))	> 7.60	> 7.60
COCC[C@@H]1NC(=O)[C@H]2CCCN2C(=O)[C@H](Cc2ccccc2)N(C)C(=O)[C@H](Cc2ccc(Cl)cc2)NC(=O)[C@H]([C@@H](C)OC(=O)c2cccnc2)NC(=O)[C@H](Cc2ccc(F)cc2)NC(=O)CN(CCOC)C(=O)[C@@H](C)N(C)C(=O)[C@H](Cc2cscn2)NC(=O)[C@H](C)N(C)C1=O [compound 3] (cyclo([Ala(4-thiazolyl)][dNMeA][Nme][Phe(4-F)]T(Nicotinoyl)[Phe(4-Cl)][NMeF][dP][hSer](Me)[NMeA]))	> 7.60	7.00 to 7.30
